Molecules are shown by their SMILES.

This assay deals with T1, hSTING (Homo sapiens, UniProt Q86WV6, G230A/H232R/R293Q/R71H).
T1 construct: host or cells: THP1-Dual KO-IFNAR2 cells
The assay is described as follows: STING reporter assay (luciferase) in THP1-Dual KO-IFNAR2 cells activated with 2'3'cGAMP. Format: cell-based. The note with it: 15 μM 2'3'cGAMP, 24 h. As for the experimental part: STING pathway activation by the compounds described herein was measured using THP1-Dual™ cells (KO-IFNAR2).
THP1-Dual™ KO-IFNAR2 Cells (obtained from invivogen) were maintained in RPMI, 10% FCS, 5 ml P/S, 2 mM L-glut, 10 mM Hepes, and 1 mM sodium pyruvate. Compounds were spotted in empty 384 well tissue culture plates (Greiner 781182) by Echo for a final concentration of 0.0017-100 μM. Cells were plated into the TC plates at 40 μL per well, 2×10E6 cells/mL. For activation with STING ligand, 2′3′cGAMP (MW 718.38, obtained from Invivogen), was prepared in Optimem media.
The following solutions were prepared for each 1×384 plate: • Solution A: 2 mL Optimem with one of the following stimuli: • 60 μL of 10 mM 2′3′cGAMP 4 150 μM stock • Solution B: 2 mL Optimem with 60 μL Lipofectamine 2000 4 Incubate 5 min at RT
2 mL of solution A and 2 ml Solution B was mixed and incubated for 20 min at room temperature (RT). 20 μL of transfection solution (A+B) was added on top of the plated cells, with a final 2′3′cGAMP concentration of 15 μM. The plates were then centrifuged immediately at 340 g for 1 minute, after which they were incubated at 37° C., 5% CO2, >98% humidity for 24 h. Luciferase reporter activity was then measured. EC50 values were calculated by using standard methods known in the art.
Luciferase reporter assay: 10 μL of supernatant from the assay was transferred to white 384-plate with flat bottom and squared wells. One pouch of QUANTI-Luc™ Plus was dissolved in 25 mL of water. 100 μL of QLC Stabilizer per 25 mL of QUANTI-Luc™ Plus solution was added. 50 μL of QUANTI-Luc™ Plus/QLC solution per well was then added. Luminescence was measured on a Platereader (e.g., Spectramax I3X (Molecular Devices GF3637001)).
Luciferase reporter activity was then measured. EC50 values were calculated by using standard methods known in the art.
(In general: In a reporter assay the amount or activity of a reporter protein is the signal.)

T1 sequence (Q86WV6 whole entry R71H/G230A/H232R/R293Q): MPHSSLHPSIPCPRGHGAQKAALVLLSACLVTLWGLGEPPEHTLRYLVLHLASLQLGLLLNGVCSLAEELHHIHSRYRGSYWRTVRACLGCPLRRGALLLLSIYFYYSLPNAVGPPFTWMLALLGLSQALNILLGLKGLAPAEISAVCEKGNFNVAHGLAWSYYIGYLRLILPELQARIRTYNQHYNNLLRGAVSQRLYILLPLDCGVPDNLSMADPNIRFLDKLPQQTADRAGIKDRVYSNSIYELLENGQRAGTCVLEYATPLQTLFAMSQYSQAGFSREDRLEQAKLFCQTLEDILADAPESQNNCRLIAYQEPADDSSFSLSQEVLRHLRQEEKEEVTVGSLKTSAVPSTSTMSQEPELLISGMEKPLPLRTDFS

In general, EC50 refers to the concentration giving half of the maximal effect. `Clc1cc(Nc2nc3cc(C4CCOCC4)ccc3[nH]2)cc2[nH]ccc12` [Compound 161, N-(4-chloro-1H-indol-6-yl)-5-(oxan-4-yl)-1H-1,3-benzodiazol-2-amine]: the EC50 lay in the range of 200 to 1000 nM.

In turn, `CC(C)(C)OC(=O)N1CCC(c2ccc3[nH]c(Nc4cc(Cl)c5cc[nH]c5c4)nc3c2)CC1` [Compound 162, tert-butyl 4-{2-[(4-chloro-1H-indol-6-yl)amino]-1H-1,3-benzodiazol-5-yl}piperidine-1-carboxylate] returned an EC50 of 200 to 1000 nM.

The compound `FC(F)n1cc(-c2ccc3[nH]c(Nc4cc(Cl)c5cc[nH]c5c4)nc3c2)cn1` [Compound 163, N-(4-chloro-1H-indol-6-yl)-5-[1-(difluoromethyl)-1H-pyrazol-4-yl]-1H-1,3-benzodiazol-2-amine] yielded an EC50 of 200 to 1000 nM.

`Clc1cc(Nc2nc3cc(-c4cnn(-c5ccccc5)c4)ccc3[nH]2)cc2[nH]ccc12` [Compound 164, N-(4-chloro-1H-indol-6-yl)-5-(1-phenyl-1H-pyrazol-4-yl)-1H-1,3-benzodiazol-2-amine] displayed an EC50 of 200 to 1000 nM.

In the case of `CC(C)CCc1ccc2[nH]c(Nc3cc(Cl)c4cc[nH]c4c3)nc2c1` [Compound 165, N-(4-chloro-1H-indol-6-yl)-5-(3-methylbutyl)-1H-1,3-benzodiazol-2-amine], the EC50 was in the range of 200 to 1000 nM.

Consider `CC(C)(O)c1ccc(-c2ccc3[nH]c(Nc4cc(Cl)c5cc[nH]c5c4)nc3c2)cc1` [Compound 166, 2-(4-{2-[(4-chloro-1H-indol-6-yl)amino]-1H-1,3-benzodiazol-5-yl}phenyl)propan-2-ol], for which the EC50 is 200 to 1000 nM.

The compound `N#Cc1cncc(-c2ccc3[nH]c(Nc4cc(Cl)c5cc[nH]c5c4)nc3c2)c1` [Compound 167, 5-{2-[(4-chloro-1H-indol-6-yl)amino]-1H-1,3-benzodiazol-5-yl}pyridine-3-carbonitrile] showed an EC50 of 200 to 1000 nM.

In the case of `Clc1cc(Nc2nc3cc(C4CCCCC4)ccc3[nH]2)cc2[nH]ccc12` [Compound 168, N-(4-chloro-1H-indol-6-yl)-5-cyclohexyl-1H-1,3-benzodiazol-2-amine], the EC50 lay in the range of 200 to 1000 nM.

Turning to `COCc1cccc(-c2ccc3[nH]c(Nc4cc(Cl)c5cc[nH]c5c4)nc3c2)c1` [Compound 169, N-(4-chloro-1H-indol-6-yl)-5-[3-(methoxymethyl)phenyl]-1H-1,3-benzodiazol-2-amine], the EC50 fell in the range of 200 to 1000 nM.

For the compound `FC(F)(F)Oc1ccc(-c2ccc3[nH]c(Nc4cc(Cl)c5cc[nH]c5c4)nc3c2)cc1` [Compound 170, N-(4-chloro-1H-indol-6-yl)-5-[4-(trifluoromethoxy)phenyl]-1H-1,3-benzodiazol-2-amine], the EC50 lay within 200 to 1000 nM.

In turn, `CS(=O)(=O)N1CCC(c2ccc3[nH]c(Nc4cc(Cl)c5cc[nH]c5c4)nc3c2)CC1` [Compound 171, N-(4-chloro-1H-indol-6-yl)-5-(1-methanesulfonylpiperidin-4-yl)-1H-1,3-benzodiazol-2-amine] displayed an EC50 of 200 to 1000 nM.

The compound `O=C(C1CC1)N1CCC(c2ccc3[nH]c(Nc4cc(Cl)c5cc[nH]c5c4)nc3c2)CC1` [Compound 172, N-(4-chloro-1H-indol-6-yl)-5-(1-cyclopropanecarbonylpiperidin-4-yl)-1H-1,3-benzodiazol-2-amine] gave an EC50 of 200 to 1000 nM.

`CC(C)(O)CCc1ccc2[nH]c(Nc3cc(Cl)c4cc[nH]c4c3)nc2c1` [Compound 173, 4-{2-[(4-chloro-1H-indol-6-yl)amino]-1H-1,3-benzodiazol-5-yl}-2-methylbutan-2-ol] returned an EC50 of 200 to 1000 nM.

With `Fc1c[nH]c2cc(Nc3nc4cc(Cl)c(Cl)cc4[nH]3)ccc12` [Compound 174, 5,6-dichloro-N-(3-fluoro-1H-indol-6-yl)-1H-1,3-benzodiazol-2-amine], the EC50 fell in the range of 40 to 200 nM.

For the compound `Fc1c[nH]c2cc(Nc3nc4cc(C(F)(F)F)ccc4[nH]3)ccc12` [Compound 175, N-(3-fluoro-1H-indol-6-yl)-5-(trifluoromethyl)-1H-1,3-benzodiazol-2-amine], the EC50 was 40 to 200 nM.

The values are drawn from patent US20240051970A1, “COMPOUNDS AND COMPOSITIONS FOR TREATING CONDITIONS ASSOCIATED WITH STING ACTIVITY” (IFM Due, Inc., priority 2020, published 2024).
